For one experiment, the system named is Laodelphax striatellus. As to the kind of experiment: Insecticidal Test on Laodelphax striatellus. Type of experiment: in vivo. The note with it: 192 h, rice plant seedlings dipped for 30 seconds, 3rd-instar larvae, 8 days after the inoculation, read-out: insecticidal efficacy (corrected mortality rate). An excerpt: Insecticidal Test on Laodelphax striatellus
The condensed heterocyclic compounds represented by the general formula (1) of the present invention or salts thereof were separately dispersed in water and diluted to 500 ppm. Rice plant seedlings (variety: Nihonbare) were dipped in the agrochemical dispersions for 30 seconds. After air-dried, each seedling was put into a separate glass test tube and inoculated with ten 3rd-instar larvae of Laodelphax striatellus, and then the glass test tubes were capped with cotton plugs. At 8 days after the inoculation, the numbers of surviving larvae and dead larvae were counted, the corrected mortality rate was calculated according to the formula shown below, and the insecticidal efficacy was evaluated according to the criteria shown below. Corrected mortality rate(%)=100×(Survival rate in a non-treatment plot−Survival rate in a treatment plot)/Survival rate in a non-treatment plot [Math. 2] Corrected Mortality Rate A: the corrected mortality rate is 100%. B: the corrected mortality rate is 90 to 99%. C: the corrected mortality rate is 80 to 89%. D: the corrected mortality rate is 50 to 79%.

The subject of the next experiment is Plutella xylostella. In words: Insecticidal Test on Plutella xylostella. Type of experiment: in vivo. Conditions: 144 h, Chinese cabbage seedlings with laid eggs dipped for about 30 seconds, 25° C., 6 days after the dip treatment, read-out: insecticidal efficacy (corrected mortality rate). The source says: Insecticidal Test on Plutella xylostella
Adults of Plutella xylostella were released onto Chinese cabbage seedlings and allowed to lay eggs thereon. At 2 days after the release of the adults, the Chinese cabbage seedlings with laid eggs were dipped for about 30 seconds in agrochemical dispersions diluted to 500 ppm, each of which contained a different condensed heterocyclic compound represented by the general formula (1) of the present invention as an active ingredient. After air-dried, the seedlings were kept in a thermostatic chamber at 25° C. At 6 days after the dip treatment, the number of hatched larvae per plot was counted, the mortality rate was calculated according to the formula shown below, and the insecticidal efficacy was evaluated according to the criteria of Test Example 2. This test was conducted in triplicate using 10 adults of Plutella xylostella per plot. Corrected mortality rate(%)=100×(Number of hatched larvae in a non-treatment plot−Number of hatched larvae in a treatment plot)/Number of hatched larvae in a non-treatment plot [Math. 3]

In general, mortality refers to the share of the test organisms that died. On to `CCn1cc(C(F)(F)F)cc2nc(-c3ncc(-c4cccc(C(F)(F)F)c4)cc3S(=O)(=O)CC)c(F)c1-2` [Compound 1-16, 2-(5-(3-trifluoromethylphenyl)-3-ethylsulfonyl-pyridin-2-yl)-3-fluoro-4-ethyl-6-trifluoromethyl-4H-pyrrolo[3,2-b]pyridine], for which the mortality at 500 ppm in the experiment on Laodelphax striatellus and in the experiment on Plutella xylostella was 100% in each case.

On to `CCn1cc(C(F)(F)F)cc2nc(-c3nc4cc(Br)ccc4cc3S(=O)(=O)CC)c(Cl)c1-2` [Compound 2-52, 2-(7-bromo-3-ethylsulfonyl-quinolin-2-yl)-3-chloro-4-ethyl-6-trifluoromethyl-4H-pyrrolo[3,2-b]pyridine], for which the mortality at 500 ppm in the experiment on Laodelphax striatellus and in the experiment on Plutella xylostella was 100% in each case.

As for `CCn1cc(C(F)(F)F)cc2nc(-c3nc4cc(Br)ccc4cc3S(=O)(=O)CC)c(F)c1-2` [Compound 2-76, 2-(7-bromo-3-ethylsulfonyl-quinolin-2-yl)-3-fluoro-4-ethyl-6-trifluoromethyl-4H-pyrrolo[3,2-b]pyridine], the mortality at 500 ppm with Laodelphax striatellus and with Plutella xylostella was 100% each time.

Regarding `CCS(=O)(=O)c1c(-c2nc3cc(C(F)(F)F)cn(C)c-3c2F)nc2cc(C(F)(F)F)ccn12` [Compound 3-14, 2-(3-ethylsulfonyl-7-(trifluoromethyl)imidazo[1,2-a]pyridin-2-yl)-3-fluoro-4-methyl-6-(trifluoromethyl)-4H-pyrrolo[3,2-b]pyridine], the mortality at 500 ppm with Laodelphax striatellus and in the experiment on Plutella xylostella was 100% each time.

In the case of `CCS(=O)(=O)c1cc(-c2cccc(C(F)(F)F)c2)cnc1-c1nc2cc(C(F)(F)F)cn(C)c-2c1Cl` [Compound 1-13, 2-(5-(3-trifluoromethylphenyl)-3-ethylsulfonyl-pyridin-2-yl)-3-chloro-4-methyl-6-trifluoromethyl-4H-pyrrolo[3,2-b]pyridine], the mortality at 500 ppm in the experiment with Laodelphax striatellus and in the experiment on Plutella xylostella was 100% in each case.
